Assay results as given in article PMC12692346, “Imidazolinium-Based NHC–Metal Complexes Overcome Both Cancer Multidrug Resistance and Cisplatin Resistance In Vitro” (International Journal of Molecular Sciences, 2025).

Columns and labels:
[1] = system: CST-2/3 cisplatin-resistant cells; assay: Monoculture PrestoBlue cytotoxicity test, cisplatin-resistant CST-2/3; assay type: cell-based, mouse; settings: for RR_CST resistance ratio (IC50_CST-2/3 / IC50_CST): CST-2/3 vs CST; for IC50: monoculture, 120 h exposure, PrestoBlue
Experimental: (§1) CST, a drug-naïve murine breast cancer cell line, and cisplatin-resistant cells CST-2/3 were seeded in monoculture into 384-well plates (Corning Inc., Corning, NY, USA) at a density of 2500 cells per well using automated liquid-handling. The cells were preincubated for 24 h to ensure adherence, followed by the addition of serially diluted compounds to a final well volume of 60 µL. Following 120 h of continuous drug exposure, cell viability was quantified using the PrestoBlue viability assay (Thermo Fisher Scientific, Waltham, MA, USA) after 1 h incubation at 555 nm excitation and 585 nm emission wavelengths.
(§2) pIC50 values derived from both co- and monoculture systems were determined by a custom program written in C# [25], then average and standard deviations were calculated and transformed to IC50 values. Every compound was tested in at least 3 independent experiments in triplicates.

[2] = system: CST murine breast cancer cell line; assay: Monoculture PrestoBlue cytotoxicity test, CST; assay type: cell-based, mouse; settings: 120 h exposure
Experimental: as §1, §2

Mes-Sa/Dx5 eGFP = assay: Triple coculture fluorescence cytotoxicity test, doxorubicin-selected MDR line; assay type: cell-based, human; settings: for RR_Dx5 resistance ratio (IC50_MDR line / IC50_parental line) of Mes-Sa/Dx5: Mes-Sa/Dx5 vs Mes-Sa; for IC50: triple coculture, 144 h incubation, fluorescence readout
Experimental: (§3) All synthesized complexes and representatives of the respective ligands (Lb, Lc, SIPr, IPr) were tested in a triple coculture of uterine sarcoma cell lines, consisting of the parental Mes-Sa cell line, and its MDR derivatives Mes-Sa/B1 and Mes-Sa/Dx5, transfected or selected in doxorubicin to overexpress P-glycoprotein, respectively (Figure 2a–c, Table S2). Each cell line expresses a distinct fluorescent protein (mCherry, mOrange, and eGFP, respectively), and the total fluorescence of a well is proportional to the cell number, allowing the assessment of compound cytotoxicity.
(§4) In a triple coculture system, cell lines expressing different fluorescent proteins were seeded in the same well. Cell lines (Mes-Sa mCherry, Mes-Sa/B1 mOrange, Mes-Sa/Dx5 eGFP [25]) were admixed and seeded on 384-well plates at a density of 3 × 800 cells/well (1:1:1 ratio), resulting in an overall total of 2400 cells. The next day, serially diluted compounds were added to the wells. Liquid handling was managed by a Hamilton StarLet pipetting robot. After 144 h of incubation, the fluorescence of mCherry (ex/em: 585/610 nm), mOrange (ex/em: 545/567 nm) and eGFP (ex/em: 485/510 nm) was recorded with an EnSpire plate reader (PerkinElmer, Waltham, MA, USA).
as §2

Mes-Sa/B1 mOrange = assay: Triple coculture fluorescence cytotoxicity test, ABCB1-transfected MDR line; assay type: cell-based, human; settings: for RR_B1 resistance ratio (IC50_MDR line / IC50_parental line) of Mes-Sa/B1: Mes-Sa/B1 vs Mes-Sa; for IC50: triple coculture, 144 h incubation, fluorescence readout
Experimental: as §3, §4, §2

[3] = system: Mes-Sa mCherry uterine sarcoma cell line; assay: Triple coculture fluorescence cytotoxicity test, parental line; assay type: cell-based, human; settings: 144 h incubation, fluorescence readout
Experimental: as §3, §4, §2

Compound | RR_Dx5 resistance ratio (IC50_MDR line / IC50_parental line) of Mes-Sa/Dx5 (Mes-Sa/Dx5 eGFP) | IC50 (Mes-Sa/Dx5 eGFP) | RR_B1 resistance ratio (IC50_MDR line / IC50_parental line) of Mes-Sa/B1 (Mes-Sa/B1 mOrange) | IC50 (Mes-Sa/B1 mOrange) | IC50 [3] | other results
N.N.O=C([O-])C1(C(=O)[O-])CCC1.[Pt+2] [Carboplatin, reference compound] | – | – | – | – | – | RR_CST resistance ratio (IC50_CST-2/3 / IC50_CST) [1]: 7.0; IC50 [1]: 6.24 µM; IC50 [2]: 890 nM
CC(C)c1cccc(C(C)C)c1N1[CH]([Cu][Cl])N(Cc2ccccc2)C[C@@H]1C(C)(C)C (stereo partly shown) [Compound 1a] | 1.3 | 0.69 µM | 4.7 | 2.45 µM | 520 nM | –
CC(C)c1cccc(C(C)C)c1N1[CH]([Cu][Cl])N([C@@H](C)c2ccccc2)C[C@@H]1C(C)(C)C (stereo partly shown) [Compound 1b] | 1.3 | 2.32 µM | 4.9 | 8.51 µM | 1740 nM | RR_Dx5 resistance ratio (IC50_MDR line / IC50_parental line) of Mes-Sa/Dx5 (Mes-Sa/Dx5 eGFP; listed as 1b*): 1.9; IC50 (Mes-Sa/Dx5 eGFP; listed as 1b*): 1.46 µM; RR_CST resistance ratio (IC50_CST-2/3 / IC50_CST) [1]: 1.8; IC50 [1]: 4.92 µM; IC50 [2]: 2810 nM; RR_B1 resistance ratio (IC50_MDR line / IC50_parental line) of Mes-Sa/B1 (Mes-Sa/B1 mOrange; listed as 1b*): 7.0; IC50 (Mes-Sa/B1 mOrange; listed as 1b*): 5.25 µM; IC50 ([3]; listed as 1b*): 750 nM
CC(C)c1cccc(C(C)C)c1N1[CH]([Cu][Cl])N([C@H](C)c2ccccc2)C[C@@H]1C(C)(C)C (stereo partly shown) [Compound 1c] | 1.5 | 1.18 µM | 6.9 | 5.5 µM | 800 nM | RR_Dx5 resistance ratio (IC50_MDR line / IC50_parental line) of Mes-Sa/Dx5 (Mes-Sa/Dx5 eGFP; listed as 1c*): 2.9; IC50 (Mes-Sa/Dx5 eGFP; listed as 1c*): 2.18 µM; RR_B1 resistance ratio (IC50_MDR line / IC50_parental line) of Mes-Sa/B1 (Mes-Sa/B1 mOrange; listed as 1c*): 5.4; IC50 (Mes-Sa/B1 mOrange; listed as 1c*): 3.97 µM; IC50 ([3]; listed as 1c*): 740 nM
CC(C)c1cccc(C(C)C)c1N1[C](=[Cu][Cl])N([C@@H](C)c2cccc3ccccc23)C[C@@H]1C(C)(C)C [Compound 1d] | 3.4 | 1.74 µM | 9.8 | 4.94 µM | 510 nM | RR_CST resistance ratio (IC50_CST-2/3 / IC50_CST) [1]: 1.3; IC50 [1]: 1.82 µM; IC50 [2]: 1380 nM
CC(C)c1cccc(C(C)C)c1N1[CH]([Cu][Cl])N([C@@H](C)C(C)(C)C)C[C@@H]1C(C)(C)C (stereo partly shown) [Compound 1f] | 1.4 | 4.19 µM | 2.7 | 8.13 µM | 3040 nM | –
CC(C)c1cccc(C(C)C)c1N1[C](=[Ag][Cl])N([C@@H](C)c2ccccc2)C[C@@H]1C(C)(C)C [Compound 2b] | 7.3 | 5.5 µM | 19.1 | 14.3 µM | 750 nM | RR_CST resistance ratio (IC50_CST-2/3 / IC50_CST) [1]: 2.2; IC50 [1]: 2.17 µM; IC50 [2]: 1010 nM
CC(C)c1cccc(C(C)C)c1N1[C](=[Ag][Cl])N([C@H](C)c2ccccc2)C[C@@H]1C(C)(C)C [Compound 2c] | 4.2 | 7.14 µM | 8.5 | 14.4 µM | 1690 nM | –
CC(C)c1cccc(C(C)C)c1N1[C](=[Ag][Cl])N([C@@H](C)c2cccc3ccccc23)C[C@@H]1C(C)(C)C [Compound 2d] | 6.2 | 3.37 µM | 9.6 | 5.2 µM | 540 nM | –
CC(C)c1cccc(C(C)C)c1N1[C](=[Ag][Cl])N([C@H](C)c2ccc3ccccc3c2)C[C@@H]1C(C)(C)C [Compound 2e] | 5.6 | 5.25 µM | 7.9 | 7.37 µM | 930 nM | RR_CST resistance ratio (IC50_CST-2/3 / IC50_CST) [1]: 1.5; IC50 [1]: 1.98 µM; IC50 [2]: 1280 nM
CC(C)c1cccc(C(C)C)c1N1[C](=[Ag][Cl])N([C@@H](C)C(C)(C)C)C[C@@H]1C(C)(C)C [Compound 2f] | 1.8 | 1.37 µM | 5.1 | 3.77 µM | 740 nM | –
CC(C)c1cccc(C(C)C)c1N1[C](=[Au][Cl])N([C@H](C)c2ccccc2)C[C@@H]1C(C)(C)C [Compound 3c] | 2.1 | 39.6 µM | 2.1 | 39.8 µM | 18600 nM | –
CC(C)c1cccc(C(C)C)c1N1[C](=[Au][Cl])N([C@H](C)c2ccc3ccccc3c2)C[C@@H]1C(C)(C)C [Compound 3e] | 2.3 | 16.9 µM | 2.6 | 19.1 µM | 7470 nM | –
CC(C)c1cccc(C(C)C)c1N1[C](=[Au][Cl])N([C@@H](C)C(C)(C)C)C[C@@H]1C(C)(C)C [Compound 3f] | 1.2 | 13.8 µM | 1.6 | 18.6 µM | 11400 nM | –
C=C[CH2][Pd]([Cl])=[C]1N([C@@H](C)c2ccccc2)C[C@H](C(C)(C)C)N1c1c(C(C)C)cccc1C(C)C [Compound 4b] | 2.4 | 12.2 µM | 1.8 | 9.33 µM | 5190 nM | –
CC(C)c1cccc(C(C)C)c1-n1ccn(-c2c(C(C)C)cccc2C(C)C)[c]1=[Cu][Cl] [Compound 5b] | 1.8 | 1.83 µM | 2.0 | 2 µM | 1010 nM | –
CC(C)c1cccc(C(C)C)c1-n1ccn(-c2c(C(C)C)cccc2C(C)C)[c]1=[Ag][Cl] [Compound 6b] | 2.1 | 3.89 µM | 2.4 | 4.37 µM | 1820 nM | –
CC(C)c1cccc(C(C)C)c1-n1ccn(-c2c(C(C)C)cccc2C(C)C)[c]1=[Au][Cl] [Compound 7b] | 3.2 | 60.3 µM | 1.9 | 36.3 µM | 18600 nM | –
CC(C)c1cccc(C(C)C)c1-n1ccn(-c2c(C(C)C)cccc2C(C)C)[c]1=[Cu+]=[c]1n(-c2c(C(C)C)cccc2C(C)C)ccn1-c1c(C(C)C)cccc1C(C)C.F[B-](F)(F)F [Compound 9b] | 37.3 | 2.15 µM | 38.0 | 2.19 µM | 58 nM | –
COc1cc([C@@H]2c3cc4c(cc3[C@@H](O[C@@H]3O[C@@H]5CO[C@@H](C)O[C@H]5[C@H](O)[C@H]3O)[C@H]3COC(=O)[C@H]23)OCO4)cc(OC)c1O [Etoposide, reference compound] | 15.4 | – | 9.0 | – | – | IC50 (Mes-Sa/Dx5 eGFP; Homo sapiens, MES-SA/Dx5): 1.9 µM; IC50 (Mes-Sa/B1 mOrange; Homo sapiens, MES-SA): 1.11 µM; IC50 ([3]; Homo sapiens, MES-SA): 120 nM
CC(C)c1cccc(C(C)C)c1-n1cc[n+](-c2c(C(C)C)cccc2C(C)C)c1 [IPr, reference compound] | 23.4 | – | 15.5 | – | – | IC50 (Mes-Sa/Dx5 eGFP; Homo sapiens, MES-SA/Dx5): 51.3 µM; IC50 (Mes-Sa/B1 mOrange; Homo sapiens, MES-SA): 33.9 µM; IC50 ([3]; Homo sapiens, MES-SA): 2190 nM
CC(C)c1cccc(C(C)C)c1N1C=[N+]([C@H](C)c2ccccc2)C[C@@H]1C(C)(C)C [Lc] | 30.4 | – | 21.4 | – | – | IC50 (Mes-Sa/Dx5 eGFP; Homo sapiens, MES-SA/Dx5): 73 µM; IC50 (Mes-Sa/B1 mOrange; Homo sapiens, MES-SA): 51.3 µM; IC50 ([3]; Homo sapiens, MES-SA): 2400 nM
O=C1[O][Pt]2([NH][C@@H]3CCCC[C@H]3[NH]2)[O]C1=O [Oxaliplatin, reference compound] | – | – | – | – | – | RR_CST resistance ratio (IC50_CST-2/3 / IC50_CST) [1]: 9.3; IC50 [1]: 3.84 µM; IC50 [2]: 410 nM
